Data from patent publication US20230106220A1, “METHOD FOR TREATMENT OF ROSACEA” (Sol-Gel Technologies Ltd., priority 2019, published 2023).

What was measured:
[1] = test system: inflammatory lesions (papules, pustules) of patients with papulopustular rosacea; experiment: Inflammatory lesion count change from baseline, 12-week vehicle-controlled study of E-BPO cream; assay type: in vivo, human
Description: (§1) Description: A multi-center, double-blind, randomized, vehicle-controlled, dose-range study of encapsulated 5% benzoyl peroxide (E-BPO) Cream and vehicle cream was performed to assess the efficacy and safety of E-BPO compared to vehicle. Study duration was 12 weeks and included approximately 350 male and female patients afflicted with papulopustular rosacea. Patients were at least 18 years of age, and met the inclusion/exclusion criteria described herein.
(§2) Dosing: Patients were randomized in a 2:1 ratio to the study product or vehicle treatment group, respectively. […]
(§3) Patients were admitted into the study after meeting all inclusion/exclusion criteria, including a clinical diagnosis of rosacea and after written informed consent has been obtained. […] At each visit, a 5-point IGA scale of rosacea; rosacea erythema, and telangiectasia; and inflammatory (papules, pustules) lesion counts were performed and recorded.
(§4) Evaluation of efficacy: The first application of the test product was applied at the investigational site at the end of the Baseline visit (Day 0) under the supervision and instruction of the designated investigational site staff. […] The evaluator also assessed local application site irritation (dryness, scaling, pruritus, stinging and burning) at Baseline and Weeks 2, 4, 8 and 12 (end of study). […]

[2] = test system: patients afflicted with papulopustular rosacea; experiment: IGA success (2-grade improvement to clear or almost clear), 12-week double-blind vehicle-controlled study of E-BPO cream; assay type: in vivo, human; conditions: four weeks
Description: as §1, §2, §3, §4

[3] = test system: rosacea; conditions: BPO as the sole active agent; cited from earlier work

**Q.** Which results are given for `O=C(OOC(=O)c1ccccc1)c1ccccc1` [BPO, Benzoyl peroxide]?
**A.** decrease in inflammatory lesions relative to the effect observed after treatment with vehicle cream ([1]; after at least 12 weeks of treatment): more than 1.5 x; decrease in inflammatory lesions ([1]; after only 2 weeks of treatment, on average): about 40%; success in IGA relative to the effect observed after treatment with SOOLANTRA [2]: more than twice; response of lesions [3]: unresponsive
